Results published in PubChem BioAssay (NCI).
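96-well plates; 48 h exposure; 5 concentrations. Endpoints by linear interpolation between flanking doses. Not reached: highest tested concentration assigned. Here, GI50 denotes the concentration required for 50% inhibition of growth. At the TGI there is no net growth.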 Where a SMILES comes first, the peptide text is derived from it. [ ]: non-standard residue; d: D form. The star is where a group is joined. Phe(2-OMe) = COc1ccccc1C[CH](N)C(=O)O; Cbz = O=C(OCc1ccccc1)*; OBn = c1ccc(CO*)cc1

Experiments:
Assay in all cases: NCI anticancer screen, dose series, 48 h; in the data active = GI50 below about 0.43 µM; inactive = the rest
[1] = tested on: 786-0 renal
[2] = tested on: A498 renal
[3] = tested on: A549 NSCLC
[4] = tested on: ACHN renal
[5] = tested on: BT-549 breast
[6] = tested on: CCRF-CEM leukemia
[7] = tested on: COLO 205 colon
[8] = tested on: EKVX NSCLC
[9] = tested on: HCC-2998 colon
[10] = tested on: HCT-116 colon
[11] = tested on: HL-60(TB) leukemia
[12] = tested on: HOP-62 NSCLC
[13] = tested on: HOP-92 NSCLC
[14] = tested on: HS 578T breast
[15] = tested on: HT29 colon
[16] = tested on: IGROV1 ovarian
[17] = tested on: K-562 leukemia
[18] = tested on: KM12 colon
[19] = tested on: M14 melanoma
[20] = tested on: MALME-3M melanoma
[21] = tested on: MCF7 breast
[22] = tested on: MDA-N
[23] = tested on: MOLT-4 leukemia
[24] = tested on: NCI-H226 lung
[25] = tested on: NCI-H23 lung
[26] = tested on: NCI-H460 lung
[27] = tested on: OVCAR-5 ovarian
[28] = tested on: OVCAR-8 ovarian
[29] = tested on: PC-3 prostate
[30] = tested on: RPMI-8226 leukemia
[31] = tested on: RXF 393 renal
[32] = tested on: SK-MEL-2 melanoma
[33] = tested on: SK-MEL-28 melanoma
[34] = tested on: SK-MEL-5 melanoma
[35] = tested on: SNB-19 CNS
[36] = tested on: SNB-75 CNS
[37] = tested on: SR leukemia
[38] = tested on: SW-620 colon
[39] = tested on: TK-10 renal
[40] = tested on: U251 CNS
[41] = tested on: UACC-257 melanoma
[42] = tested on: UACC-62 melanoma
[43] = tested on: UO-31 renal
[44] = tested on: CAKI-1 renal
[45] = tested on: DU-145 prostate
[46] = tested on: HCT-15 colon
[47] = tested on: LOX IMVI melanoma
[48] = tested on: MDA-MB-231 breast
[49] = tested on: MDA-MB-435
[50] = tested on: NCI-H522 lung
[51] = tested on: NCI/ADR-RES ovarian
[52] = tested on: OVCAR-3 ovarian
[53] = tested on: OVCAR-4 ovarian
[54] = tested on: SF-295 CNS
[55] = tested on: SF-539 CNS
[56] = tested on: SK-OV-3 ovarian
[57] = tested on: SF-268 CNS
[58] = tested on: SN12C renal
[59] = tested on: T-47D breast

COC(=O)C(Cc1ccccc1OC)NC(=O)C(CC(=O)OCc1ccccc1)NC(=O)OCc1ccccc1 (stereo not given) (Cbz-Asp(OBn)-[Phe(2-OMe)]-OMe; configuration not given here)
> 100 µM: TGI [1] | TGI [2] | TGI [3] | TGI [4] | TGI [5] | TGI [6] | TGI [7] | TGI [8] | TGI [9] | TGI [10] | TGI [11] | TGI [12] | TGI [13] | TGI [14] | TGI [15] | TGI [16] | TGI [17] | TGI [18] | TGI [19] | TGI [20] | TGI [21] | TGI [22] | TGI [23] | TGI [24] | TGI [25] | TGI [26] | TGI [27] | TGI [28] | TGI [29] | TGI [30] | TGI [31] | TGI [32] | TGI [33] | TGI [34] | TGI [35] | TGI [36] | TGI [38] | TGI [39] | TGI [40] | TGI [41] | TGI [42] | TGI [43]
84.6 µM: TGI [37]

CC1(C)OC(CCC#N)CN1C(=O)OCc1ccccc1 (stereo not given)
> 100 µM: TGI [1] | TGI [2] | TGI [3] | TGI [4] | TGI [5] | TGI [44] | TGI [6] | TGI [7] | TGI [45] | TGI [8] | TGI [9] | TGI [10] | TGI [46] | TGI [11] | TGI [13] | TGI [16] | TGI [17] | TGI [18] | TGI [47] | TGI [19] | TGI [20] | TGI [21] | TGI [48] | TGI [49] | TGI [22] | TGI [23] | TGI [24] | TGI [25] | TGI [26] | TGI [50] | TGI [51] | TGI [52] | TGI [53] | TGI [27] | TGI [28] | TGI [29] | TGI [30] | TGI [31] | TGI [54] | TGI [55] | TGI [32] | TGI [33] | TGI [34] | TGI [56] | TGI [35] | TGI [36] | TGI [37] | TGI [38] | TGI [39] | TGI [40] | TGI [41] | TGI [42] | TGI [43]

O=Cc1cn(CCCCCn2cc(C=O)c3ccccc32)c2ccccc12
62.2 µM: TGI [14]
11.4 µM: TGI [26]
> 100 µM: TGI [1] | TGI [3] | TGI [4] | TGI [5] | TGI [44] | TGI [6] | TGI [7] | TGI [45] | TGI [8] | TGI [10] | TGI [46] | TGI [11] | TGI [13] | TGI [15] | TGI [16] | TGI [47] | TGI [19] | TGI [20] | TGI [48] | TGI [49] | TGI [22] | TGI [23] | TGI [24] | TGI [25] | TGI [50] | TGI [51] | TGI [52] | TGI [28] | TGI [29] | TGI [30] | TGI [31] | TGI [54] | TGI [55] | TGI [32] | TGI [34] | TGI [56] | TGI [58] | TGI [35] | TGI [37] | TGI [38] | TGI [39] | TGI [40] | TGI [41] | TGI [42] | TGI [43]
6.5 µM: TGI [27]
72.6 µM: TGI [57]

O=C(Nc1ccc(-n2ccc3c(NC(=O)c4ccccc4)ncnc32)cc1)c1ccc(Cl)c(C(F)(F)F)c1
4.8 µM: TGI [26]
18.2 µM: TGI [6]
17.2 µM: TGI [7]
14.7 µM: TGI [29]
11.5 µM: TGI [48]
inactive: GI50 [1] 5.02 µM | GI50 [2] 13 µM | GI50 [3] 1.84 µM | GI50 [4] 1.28 µM | GI50 [5] 15.1 µM | GI50 [44] 0.83 µM | GI50 [6] 0.849 µM | GI50 [7] 2.46 µM | GI50 [45] 1.48 µM | GI50 [8] 5.66 µM | GI50 [9] 4.5 µM | GI50 [10] 0.536 µM | GI50 [11] 4.99 µM | GI50 [12] 3.45 µM | GI50 [13] 8.16 µM | GI50 [14] 4.96 µM | GI50 [15] 0.752 µM | GI50 [16] 5.81 µM | GI50 [18] 0.939 µM | GI50 [19] 1.37 µM | GI50 [20] 6.41 µM | GI50 [21] 1.91 µM | GI50 [48] 1.93 µM | GI50 [49] 2.12 µM | GI50 [23] 1.38 µM | GI50 [24] 6.58 µM | GI50 [25] 13.1 µM | GI50 [50] 3.02 µM | GI50 [51] 3.1 µM | GI50 [52] 3.44 µM | GI50 [53] 2.63 µM | GI50 [27] 3.87 µM | GI50 [28] 2.1 µM | GI50 [29] 3.57 µM | GI50 [30] 1.63 µM | GI50 [31] 4.74 µM | GI50 [57] 2.17 µM | GI50 [54] 1.91 µM | GI50 [55] 3.63 µM | GI50 [32] 2.36 µM | GI50 [33] 4.9 µM | GI50 [34] 0.603 µM | GI50 [56] 11.1 µM | GI50 [58] 3.8 µM | GI50 [35] 4.21 µM | GI50 [36] 1.55 µM | GI50 [38] 1.29 µM | GI50 [59] 2.9 µM | GI50 [39] 5.17 µM | GI50 [40] 0.462 µM | GI50 [41] 5.17 µM | GI50 [42] 0.947 µM | GI50 [43] 7.13 µM
31 µM: TGI [16]
7.71 µM: TGI [18]
6.16 µM: TGI [15]
23.5 µM: TGI [9] | TGI [51]
13.3 µM: TGI [50]
25.1 µM: TGI [24]
8.68 µM: TGI [32]
22.5 µM: TGI [27]
9.42 µM: TGI [53]
6.21 µM: TGI [38]
8.46 µM: TGI [45]
12.2 µM: TGI [42]
20 µM: TGI [54]
9.47 µM: TGI [19]
16.5 µM: TGI [58]
40.7 µM: TGI [25]
15.3 µM: TGI [33]
25.4 µM: TGI [8]
> 32 µM: TGI [23]
23.7 µM: TGI [43]
7.26 µM: TGI [10]
13.8 µM: TGI [59]
11.4 µM: TGI [36]
11.2 µM: TGI [12]
21.2 µM: TGI [20]
15.6 µM: TGI [14] | TGI [21]
12.9 µM: TGI [39]
> 35 µM: TGI [17]
15.2 µM: TGI [4] | TGI [57]
15.1 µM: TGI [34]
11.1 µM: TGI [44]
9.37 µM: TGI [52]
24.5 µM: TGI [41]
29 µM: TGI [30]
12.6 µM: TGI [3]
17.8 µM: TGI [35]
> 52.8 µM: TGI [11]
> 54.7 µM: TGI [55]
10.3 µM: TGI [49]
5.75 µM: TGI [40]
29.4 µM: TGI [2]
3.71 µM: TGI [47]
25.5 µM: TGI [56]
15.4 µM: TGI [31]
> 20.1 µM: TGI [37]
6.77 µM: TGI [46]
active: GI50 [46] 0.116 µM | GI50 [17] 0.42 µM | GI50 [47] 0.321 µM | GI50 [26] 0.204 µM | GI50 [37] 0.145 µM
25.7 µM: TGI [13]
48.8 µM: TGI [5]
23.6 µM: TGI [1]
